{"source": "patent US6413997B1", "about": "“3-(substituted phenyl)-5-(substituted heterocyclyl)-1,2,4-triazole compounds” (priority 1998, dated 2002)", "assay_type_in_all_cases": "in vivo", "key": {"[1]": {"test_system": "cotton aphids (aphis gossypii)", "assay": "Insecticidal test for cotton aphid, foliar spray on infested squash cotyledons", "conditions": "50 ppm spray, graded after 3 days, versus untreated check", "description": "Insecticidal Test for Cotton Aphid (Aphis gossypii)\nTo prepare spray solutions, 2 mg of each test compound was dissolved into 2 mL of a 90:10 acetone:ethanol solvent. This 2 mL of chemical solution was added to 38 mL of water containing 0.05% Tween 20 surfactant to produce a 50 ppm spray solution.\nSquash cotyledons were infested with cotton aphid (all life stages16-20 hours prior to application of spray solution. The solution was sprayed on both sides of each infested squash cotyledon (0.5 mL×2 each side with a sweeping action using a total of 2 mL of spray solution. The plants were allowed to air dry and held for 3 days in a controlled room at 26° C. and 40% RH after which time the test was graded. Grading was by actual count using a dissecting microscope and comparison of test counts to the untreated check. Results are given in Table 1 as percent control based on population reduction versus the untreated."}, "[2]": {"test_system": "sweetpotato whitefly (bemisia tabaci)", "assay": "Sweetpotato whitefly test on cotton plants under laboratory conditions", "conditions": "800 ppm (table footnote), spray on cotton plants with eggs, 21 days, spent pupal cases versus solution-only plants", "description": "Evaluation of Tests Compounds on Sweetpotato Whitefly (Bemisia tabacia) Under Laboratory Conditions\nFour mg of each test compound was dissolved by adding 5 ml of a 90:10 acetone:ethanol solvent mixture to the vial containing the sample compound. […]\nFive-week-old cotton plants reared in a greenhouse were stripped of all foliage except for the two uppermost true leaves that were greater than 5 cm in diameter. These plants were then placed into a laboratory colony of whiteflies for three days for oviposition by the colony females. All whiteflies were then removed from the test plants with pressurized air. The spray solution was then applied to the test plants with a hand-held syringe fitted with hollow cone nozzle. One mL spray solution was applied to each leaf top and bottom for a total of 4 mL per plant. Four replications of each test compound utilized a total of 16 mL spray solution. Plants were air dried and then placed in a holding chamber (26° C. and 40% RH for 21 days. Compound efficacy was evaluated by counting, under a dissecting microscope, the number of spent pupal cases per leaf. A spent pupal case represents a whitefly egg that has undergone full development to achieve adult status, thus indicating lack of control.\nPercent control based on reduction of spent pupal cases of a test compound compared to solution-only (no test compound sprayed plants is reported in Table 1."}, "[3]": {"test_system": "twospotted spider mite (tetranychus uriticae)", "assay": "Two-spotted spider mite test, ovicide method on cotton leaf discs", "conditions": "leaf disc dip, 6 days, hatched larvae versus untreated discs", "description": "Insecticidal Test for Two-spotted Spider Mite (Tetranychus urticae)\nTen adult female two-spotted spider mites were placed on eight 2.2 cm leaf discs of cotton leaf, allowed to oviposit over 24 hours, and thereafter removed. The leaf discs were immersed in 100 ppm test solutions for 3 seconds, then allowed to dry with sixteen discs left untreated as a negative control. Discs were placed on an agar substrate and held at 24° C. and 90% relative humidity for 6 days."}}, "data": [{"compound": "Cn1nc(-c2c(F)cccc2F)nc1-c1sc(Cl)nc1Cl", "note": "[Compound 42]", "values": [{"measurement": "CA: activity at 50 ppm against cotton aphids (rating of % mortality / percent control)", "setting": "[1]", "value": "B (81-90)"}, {"measurement": "WF: activity at 800 ppm against sweetpotato whitefly (rating of % mortality / percent control)", "setting": "[2]", "value": "G (Inactive)"}, {"measurement": "TSSM: activity at 100 ppm against twospotted spider mite (rating of % mortality / percent control)", "setting": "[3]", "value": "A (91-100)"}]}, {"compound": "Cc1nc(-c2ccc(C(F)(F)F)cc2)sc1-c1nc(-c2c(F)cccc2F)nn1C", "note": "[Compound 47]", "values": [{"measurement": "CA: activity at 50 ppm against cotton aphids (rating of % mortality / percent control)", "setting": "[1]", "value": "D (61-70)"}, {"measurement": "WF: activity at 800 ppm against sweetpotato whitefly (rating of % mortality / percent control)", "setting": "[2]", "value": "G (Inactive)"}, {"measurement": "TSSM: activity at 100 ppm against twospotted spider mite (rating of % mortality / percent control)", "setting": "[3]", "value": "A (91-100)"}]}, {"compound": "Cn1nc(-c2c(F)cccc2F)nc1-c1csc(-c2cccs2)n1", "note": "[Compound 50]", "values": [{"measurement": "CA: activity at 50 ppm against cotton aphids (rating of % mortality / percent control)", "setting": "[1]", "value": "A (91-100)"}, {"measurement": "WF: activity at 800 ppm against sweetpotato whitefly (rating of % mortality / percent control)", "setting": "[2]", "value": "G (Inactive)"}, {"measurement": "TSSM: activity at 100 ppm against twospotted spider mite (rating of % mortality / percent control)", "setting": "[3]", "value": "G (Inactive)"}]}, {"compound": "Cn1nc(-c2c(F)cccc2F)nc1-c1snnc1-c1ccccc1", "note": "[Compound 58]", "values": [{"measurement": "CA: activity at 50 ppm against cotton aphids (rating of % mortality / percent control)", "setting": "[1]", "value": "A (91-100)"}, {"measurement": "WF: activity at 800 ppm against sweetpotato whitefly (rating of % mortality / percent control)", "setting": "[2]", "value": "G (Inactive)"}, {"measurement": "TSSM: activity at 100 ppm against twospotted spider mite (rating of % mortality / percent control)", "setting": "[3]", "value": "C (71-80)"}]}, {"compound": "Cc1cc(-c2nc(-c3c(F)cccc3F)nn2C)n(C)n1", "note": "[Compound 62]", "values": [{"measurement": "CA: activity at 50 ppm against cotton aphids (rating of % mortality / percent control)", "setting": "[1]", "value": "A (91-100)"}, {"measurement": "WF: activity at 800 ppm against sweetpotato whitefly (rating of % mortality / percent control)", "setting": "[2]", "value": "E (51-60)"}, {"measurement": "TSSM: activity at 100 ppm against twospotted spider mite (rating of % mortality / percent control)", "setting": "[3]", "value": "G (Inactive)"}]}, {"compound": "Cn1nc(-c2c(F)cccc2F)nc1-c1cc(C(C)(C)C)nn1Cc1ccccc1", "note": "[Compound 70]", "values": [{"measurement": "CA: activity at 50 ppm against cotton aphids (rating of % mortality / percent control)", "setting": "[1]", "value": "B (81-90)"}, {"measurement": "WF: activity at 800 ppm against sweetpotato whitefly (rating of % mortality / percent control)", "setting": "[2]", "value": "E (51-60)"}, {"measurement": "TSSM: activity at 100 ppm against twospotted spider mite (rating of % mortality / percent control)", "setting": "[3]", "value": "G (Inactive)"}]}, {"compound": "Cc1cc(-c2nc(-c3c(F)cccc3F)nn2C)nn1C", "note": "[Compound 71]", "values": [{"measurement": "CA: activity at 50 ppm against cotton aphids (rating of % mortality / percent control)", "setting": "[1]", "value": "A (91-100)"}, {"measurement": "WF: activity at 800 ppm against sweetpotato whitefly (rating of % mortality / percent control)", "setting": "[2]", "value": "G (Inactive)"}, {"measurement": "TSSM: activity at 100 ppm against twospotted spider mite (rating of % mortality / percent control)", "setting": "[3]", "value": "G (Inactive)"}]}, {"compound": "Cc1cc(-c2nc(-c3c(F)cccc3Cl)nn2C)nn1C", "note": "[Compound 72]", "values": [{"measurement": "CA: activity at 50 ppm against cotton aphids (rating of % mortality / percent control)", "setting": "[1]", "value": "A (91-100)"}, {"measurement": "WF: activity at 800 ppm against sweetpotato whitefly (rating of % mortality / percent control)", "setting": "[2]", "value": "G (Inactive)"}, {"measurement": "TSSM: activity at 100 ppm against twospotted spider mite (rating of % mortality / percent control)", "setting": "[3]", "value": "C (71-80)"}]}, {"compound": "Cn1nc(-c2c(F)cccc2F)nc1-c1cnn(C)c1[N+](=O)[O-]", "note": "[Compound 78]", "values": [{"measurement": "CA: activity at 50 ppm against cotton aphids (rating of % mortality / percent control)", "setting": "[1]", "value": "A (91-100)"}, {"measurement": "WF: activity at 800 ppm against sweetpotato whitefly (rating of % mortality / percent control)", "setting": "[2]", "value": "G (Inactive)"}, {"measurement": "TSSM: activity at 100 ppm against twospotted spider mite (rating of % mortality / percent control)", "setting": "[3]", "value": "A (91-100)"}]}, {"compound": "Cn1nc(-c2c(F)cccc2F)nc1-c1cnn(-c2ccc(Cl)cc2)c1C(F)(F)F", "note": "[Compound 79]", "values": [{"measurement": "CA: activity at 50 ppm against cotton aphids (rating of % mortality / percent control)", "setting": "[1]", "value": "A (91-100)"}, {"measurement": "WF: activity at 800 ppm against sweetpotato whitefly (rating of % mortality / percent control)", "setting": "[2]", "value": "G (Inactive)"}, {"measurement": "TSSM: activity at 100 ppm against twospotted spider mite (rating of % mortality / percent control)", "setting": "[3]", "value": "G (Inactive)"}]}, {"compound": "Cn1nc(-c2c(F)cccc2F)nc1-c1ccc(Br)n1C", "note": "[Compound 85]", "values": [{"measurement": "CA: activity at 50 ppm against cotton aphids (rating of % mortality / percent control)", "setting": "[1]", "value": "B (81-90)"}, {"measurement": "WF: activity at 800 ppm against sweetpotato whitefly (rating of % mortality / percent control)", "setting": "[2]", "value": "G (Inactive)"}, {"measurement": "TSSM: activity at 100 ppm against twospotted spider mite (rating of % mortality / percent control)", "setting": "[3]", "value": "E (51-60)"}]}, {"compound": "Cn1nc(-c2c(F)cccc2F)nc1-c1cc(Br)c(Br)n1C", "note": "[Compound 86]", "values": [{"measurement": "CA: activity at 50 ppm against cotton aphids (rating of % mortality / percent control)", "setting": "[1]", "value": "A (91-100)"}, {"measurement": "WF: activity at 800 ppm against sweetpotato whitefly (rating of % mortality / percent control)", "setting": "[2]", "value": "G (Inactive)"}, {"measurement": "TSSM: activity at 100 ppm against twospotted spider mite (rating of % mortality / percent control)", "setting": "[3]", "value": "G (Inactive)"}]}]}
